{"source": "patent US7838485B2", "about": "“Biodegradable alkaline disinfectant cleaner with analyzable surfactant” (American Sterilizer Company, priority 2007, dated 2010)", "system": "S. aureus ATCC 6538", "assay": "Quantitative modified AOAC Use Dilution Test, log reduction on stainless steel penicylinders", "format": "cell-based", "settings": "5% Fetal bovine serum soil load, contact time 10 min., 10% of the product", "text": "Tests were done using the aforementioned modified version of the AOAC Use Dilution Test, to quantify the number of viable bacteria remaining on the stainless steel penicylinders. […] Starting populations are listed in parentheses."}
{"smiles": "[Na+].[OH-]", "note": "[13% NaOH, sodium hydroxide]", "values": [{"measurement": "Average Log Reduction", "setting": "40° C.", "value": 2.69}, {"measurement": "Average Log Reduction", "setting": "60° C.", "value": 7.00}, {"measurement": "Average Log Reduction", "setting": "RT", "value": 1.76}]}
